Results as given in patent publication US11986532B2 (Arvinas Operations, Inc., priority 2021, dated 2024).
Read-outs that look alike come from different tables or passages of the source.

Target: T1, BCL6 (Homo sapiens, UniProt P41182)
T1 construct: endogenous in cells; host or cells: T47D breast cancer epithelial cells
Test: Immunofluorescence protocol for high content imaging of BCL6 (degradation) in T47D cells, 3 days compound treatment
Type: cell-based
Conditions: for DC50: read-out: Mean DC50 (nM)* category; for Dmax: read-out: Mean Dmax (%)** category
Procedure, shortened: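 High content immunofluorescence imaging (10×, 4 fields/well) of BCL6 using rabbit primary antibody, Alexa-488 secondary, cell mask and Hoechst nuclear stain after PFA fixation. Before staining, T47D cells (7K/well) were exposed for 3 days at 37° C to 3-fold serial dilutions of compound, top final concentration 0.1 or 1 μM.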

[1] = T47D cells, 3 days compound treatment

SMILES	DC50 [1] [nM]	Dmax [1] [%]	Mean Dmax (%)** category	DC50 [nM]	Dmax (T47D) [%]
CNC(=O)COc1cc2cc(Nc3nc(N4CCN(C(C)(C)C5CCN(c6cc7c(cc6OC)C(=O)N(C6CCC(=O)NC6=O)C7)CC5)CC4)ncc3Cl)ccc2n(C(C)C)c1=O (stereo not shown) [Compound 112, 2-{[6-({5-chloro-2-[4-(2-{1-[2-(2,6-dioxopiperidin-3-yl)-6-methoxy-1-oxo-2,3-dihydro-1H-isoindol-5-yl]piperidin-4-yl}propan-2-yl)piperazin-1-yl]pyrimidin-4-yl}amino)-2-oxo-1-(propan-2-yl)-1,2-dihydroquinolin-3-yl]oxy}-N-methylacetamide]	< 10	50 to 70			
CNC(=O)COc1cc2cc(Nc3nc(N4CCC(O[C@H]5C[C@H](N6C[C@@H](C)N(c7ccc8c(c7)C(=O)N(C7CCC(=O)NC7=O)C8=O)[C@@H](C)C6)C5)CC4)ncc3Cl)ccc2n(C(C)C)c1=O (stereo partly drawn) [Compound 244, 2-({6-[(5-chloro-2-{4-[(1r,3r)-3-[(3R,5S)-4-[2-(2,6-dioxopiperidin-3-yl)-1,3-dioxo-2,3-dihydro-1H-isoindol-5-yl]-3,5-dimethylpiperazin-1-yl]cyclobutoxy]piperidin-1-yl}pyrimidin-4-yl)amino]-2-oxo-1-(propan-2-yl)-1,2-dihydroquinolin-3-yl}oxy)-N-methylacetamide]			A (A >= 70)	10 to 50	
CNC(=O)COc1cc2cc(Nc3nc(N4CCC[C@H](COc5cccc6c5C(=O)N(C5CCC(=O)NC5=O)C6=O)C4)ncc3Cl)ccc2n(CCN(C)C)c1=O (stereo partly drawn) [Compound 141, 2-{[6-({5-chloro-2-[(3S)-3-({[2-(2,6-dioxopiperidin-3-yl)-1,3-dioxo-2,3-dihydro-1H-isoindol-4-yl]oxy}methyl)piperidin-1-yl]pyrimidin-4-yl}amino)-1-[2-(dimethylamino)ethyl]-2-oxo-1,2-dihydroquinolin-3-yl]oxy}-N-methylacetamide]	≥ 100				
CNC(=O)COc1cc2cc(Nc3nc(N4CCC(CN5CCC6(CC5)CN(c5ccc7c(c5F)CN(C5CCC(=O)NC5=O)C7=O)C6(C)C)CC4)ncc3Cl)ccc2n(C(C)C)c1=O (stereo not shown) [Compound 162, 2-{[6-({5-chloro-2-[4-({2-[2-(2,6-dioxopiperidin-3-yl)-4-fluoro-1-oxo-2,3-dihydro-1H-isoindol-5-yl]-1,1-dimethyl-2,7-diazaspiro[3.5]nonan-7-yl}methyl)piperidin-1-yl]pyrimidin-4-yl}amino)-2-oxo-1-(propan-2-yl)-1,2-dihydroquinolin-3-yl]oxy}-N-methylacetamide]	< 10	≥ 70			
CNC(=O)COc1cc2cc(Nc3nc(N4CCC(C(C)(C)N5CCC6(CC5)CN(c5cccc7c5CN(C5CCC(=O)NC5=O)C7=O)C6)CC4)ncc3Cl)ccc2n(C(C)C)c1=O (stereo not shown) [Compound 59, 2-{[6-({5-chloro-2-[4-(2-{2-[2-(2,6-dioxopiperidin-3-yl)-1-oxo-2,3-dihydro-1H-isoindol-4-yl]-2,7-diazaspiro[3.5]nonan-7-yl}propan-2-yl)piperidin-1-yl]pyrimidin-4-yl}amino)-2-oxo-1-(propan-2-yl)-1,2-dihydroquinolin-3-yl]oxy}-N-methylacetamide]	< 10	50 to 70			
CNC(=O)COc1cc2cc(Nc3nc(N4CCC(O[C@H]5C[C@H](N6CCN(c7ccc8c(c7)CN([C@H]7CCC(=O)NC7=O)C8=O)C(C)(C)C6)C5)CC4)ncc3Cl)ccc2n(C(C)C)c1=O [Compound 211, 2-({6-[(5-chloro-2-{4-[(1r,3r)-3-{4-[2-(2,6-dioxopiperidin-3-yl)-1-oxo-2,3-dihydro-1H-isoindol-5-yl]-3,3-dimethylpiperazin-1-yl}cyclobutoxy]piperidin-1-yl}pyrimidin-4-yl)amino]-2-oxo-1-(propan-2-yl)-1,2-dihydroquinolin-3-yl}oxy)-N-methylacetamide]				< 10	≥ 70
CNC(=O)COc1cc2cc(Nc3nc(N4CCC(O[C@H]5C[C@H](N6CCN(c7ccc8c(c7)C(=O)N(C7CCC(=O)NC7=O)C8=O)[C@H](C)C6)C5)CC4)ncc3Cl)ccc2n(C(C)C)c1=O (stereo partly drawn) [Compound 387, 2-({6-[(5-chloro-2-{4-[(1r,3r)-3-[(3R)-4-[2-(2,6-dioxopiperidin-3-yl)-1,3-dioxo-2,3-dihydro-1H-isoindol-5-yl]-3-methylpiperazin-1-yl]cyclobutoxy]piperidin-1-yl}pyrimidin-4-yl)amino]-2-oxo-1-(propan-2-yl)-1,2-dihydroquinolin-3-yl}oxy)-N-methylacetamide]				< 10	50 to 70
CNC(=O)COc1cc2cc(Nc3nc(N4CCC(O[C@H]5C[C@H](N6CCN(c7ccc8c(c7)CN(C7CCC(=O)NC7=O)C8=O)C(C)(C)C6)C5)CC4)ncc3Cl)ccc2n(C(C)C)c1=O (stereo partly shown) [Compound 170, 2-({6-[(5-chloro-2-{4-[(1r,3r)-3-{4-[2-(2,6-dioxopiperidin-3-yl)-1-oxo-2,3-dihydro-1H-isoindol-5-yl]-3,3-dimethylpiperazin-1-yl}cyclobutoxy]piperidin-1-yl}pyrimidin-4-yl)amino]-2-oxo-1-(propan-2-yl)-1,2-dihydroquinolin-3-yl}oxy)-N-methylacetamide]	< 10	≥ 70			
CNC(=O)COc1cc2cc(Nc3nc(N4CCC(CN5CCC6(CN(c7ccc8c(c7)C(=O)N(C7CCC(=O)NC7=O)C8=O)C6)C(F)(F)C5)CC4)ncc3Cl)ccc2n(C(C)C)c1=O (stereo not shown) [Compound 38, 2-{[6-({5-chloro-2-[4-({2-[2-(2,6-dioxopiperidin-3-yl)-1,3-dioxo-2,3-dihydro-1H-isoindol-5-yl]-5,5-difluoro-2,7-diazaspiro[3.5]nonan-7-yl}methyl)piperidin-1-yl]pyrimidin-4-yl}amino)-2-oxo-1-(propan-2-yl)-1,2-dihydroquinolin-3-yl]oxy}-N-methylacetamide]	< 10	50 to 70			
CNC(=O)COc1cc2cc(Nc3cc(N4CCC(CN5CCC6(CN(c7ccc8c(c7OC)CN(C7CCC(=O)NC7=O)C8=O)C6)C(F)(F)C5)CC4)ncc3Cl)ccc2n(C(C)C)c1=O (stereo not shown) [Compound 232, 2-{[6-({5-chloro-2-[4-({2-[2-(2,6-dioxopiperidin-3-yl)-4-methoxy-1-oxo-2,3-dihydro-1H-isoindol-5-yl]-5,5-difluoro-2,7-diazaspiro[3.5]nonan-7-yl}methyl)piperidin-1-yl]pyridin-4-yl}amino)-2-oxo-1-(propan-2-yl)-1,2-dihydroquinolin-3-yl]oxy}-N-methylacetamide]				< 10	
CNC(=O)COc1cc2cc(Nc3nc(N4CCN(C[C@H]5C[C@@H](N6CCC(c7cccc8c7C(=O)N(C7CCC(=O)NC7=O)C8=O)CC6)C5)CC4)ncc3Cl)ccc2n(C(C)C)c1=O (stereo partly shown) [Compound 23, 2-[(6-{[5-chloro-2-(4-{[(1s,3s)-3-{4-[2-(2,6-dioxopiperidin-3-yl)-1,3-dioxo-2,3-dihydro-1H-isoindol-4-yl]piperidin-1-yl}cyclobutyl]methyl}piperazin-1-yl)pyrimidin-4-yl]amino}-2-oxo-1-(propan-2-yl)-1,2-dihydroquinolin-3-yl)oxy]-N-methylacetamide]	50 to 100	< 50			
CNC(=O)COc1cc2cc(Nc3nc(N4CCN(C(C)(C)C5CCC6(CCN(c7ccc8c(c7)CN(C7CCC(=O)NC7=O)C8=O)C6)C5)CC4)ncc3Cl)ccc2n(C(C)C)c1=O (stereo not shown) [Compound 74, 2-{[6-({5-chloro-2-[4-(2-{2-[2-(2,6-dioxopiperidin-3-yl)-1-oxo-2,3-dihydro-1H-isoindol-5-yl]-2-azaspiro[4.4]nonan-7-yl}propan-2-yl)piperazin-1-yl]pyrimidin-4-yl}amino)-2-oxo-1-(propan-2-yl)-1,2-dihydroquinolin-3-yl]oxy}-N-methylacetamide]	< 10	< 50			
[2H]C([2H])([2H])Oc1c(N2CC3(CCN(CC4CCN(c5ncc(Cl)c(Nc6ccc7c(c6)cc(OCC(=O)NC)c(=O)n7C(C)C)n5)CC4)CC3)C2(C)C)ccc2c1CN(C1CCC(=O)NC1=O)C2=O (stereo not shown) [Compound 227, 2-{[6-({5-chloro-2-[4-({2-[2-(2,6-dioxopiperidin-3-yl)-4-(^2H3)methoxy-1-oxo-2,3-dihydro-1H-isoindol-5-yl]-1,1-dimethyl-2,7-diazaspiro[3.5]nonan-7-yl}methyl)piperidin-1-yl]pyrimidin-4-yl}amino)-2-oxo-1-(propan-2-yl)-1,2-dihydroquinolin-3-yl]oxy}-N-methylacetamide]				< 10	50 to 70
CNC(=O)COc1cc2cc(Nc3nc(N4CCC(O[C@H]5C[C@H](N6C[C@@H](C)N(c7ccc8c(c7)CN(C7CCC(=O)NC7=O)C8=O)[C@H](C)C6)C5)CC4)ncc3Cl)ccc2n(C(C)C)c1=O (relative stereo) [Compound 179, 2-({6-[(5-chloro-2-{4-[(1r,3r)-3-[(3R*,5R*)-4-[2-(2,6-dioxopiperidin-3-yl)-1-oxo-2,3-dihydro-1H-isoindol-5-yl]-3,5-dimethylpiperazin-1-yl]cyclobutoxy]piperidin-1-yl}pyrimidin-4-yl)amino]-2-oxo-1-(propan-2-yl)-1,2-dihydroquinolin-3-yl}oxy)-N-methylacetamide]	< 10	≥ 70			
CNC(=O)COc1cc2cc(Nc3nc(N4CCC(O[C@H]5CC[C@@H](N6CCC(c7ccc8c(c7)C(=O)N(C7CCC(=O)NC7=O)C8=O)CC6)CC5)CC4)ncc3Cl)ccc2n(C(C)C)c1=O (stereo partly shown) [Compound 110, 2-[(6-{[5-chloro-2-(4-{[(1s,4s)-4-{4-[2-(2,6-dioxopiperidin-3-yl)-1,3-dioxo-2,3-dihydro-1H-isoindol-5-yl]piperidin-1-yl}cyclohexyl]oxy}piperidin-1-yl)pyrimidin-4-yl]amino}-2-oxo-1-(propan-2-yl)-1,2-dihydroquinolin-3-yl)oxy]-N-methylacetamide]	≥ 100	≥ 70			
